Test results as given in patent publication US20220306640A1, “HYDANTOIN DERIVATIVE” (ONO PHARMACEUTICAL CO., LTD., priority 2019, published 2022).

Columns and labels:
ROCK = ROCK (Homo sapiens, UniProt O75116); experiment: Evaluation of kinase selectivity: % inhibition rate of ROCK at 1 μmol/L; format: biochemical; conditions: compound at 1 μmol/L; read-out: % inhibition rate of ROCK2
Procedure: (§1) Biological Example 3: Evaluation of Kinase Selectivity
(§2) % inhibition rate with respect to various kinases (for example KDR etc.) of 1 μmol/L the test compound is measured.
(§3) A general assay condition (substrates, cofactor, ATP concentrations and reaction time etc.) suitable for respective kinase enzyme inhibition activity test is used.
(§4) 1 Prepare the test compounds into 1 mmol/L DMSO solution. 2 Transfer 20 nL of stock to 384 assay plate. Use DMSO as High and Low controls.
(§5) 1 Prepare the 1.3× Enzyme solution containing enzyme, substrate and cofactors. 2 Add 15 μL of 1.3× Enzyme solutions to each well and incubate the plate at room temperature for 30 min. 3 Initiate the reaction by adding 5 μL of 4×ATP solution. The final volume of each well should be 20 μL. 4 Incubate the plate at room temperature for reaction and add 75 μL of stopping buffer (containing 0.5 mol/L EDTA) to terminate the reaction.
(§6) Analyze the sample of each well using EZ reader (PerkinElmer).
(§7) Calculate the % Inhibition using read conversion ratio (CR) following the equation as below.
(§8) Use well treated with DMSO as High Control Use well without enzyme as Low Control

[1] = target: T1, DDR1 phosphorylation in T-47D (ATCC, HTB-133) cells (Homo sapiens, UniProt Q08345); experiment: Measurement of DDR1 phosphorylation suppression rate by using T-47D cells (p-DDR1 ELISA); format: cell-based; conditions: collagen Type I 10 μg/ml, p-DDR1 (panTyr) ELISA
T1 construct: host or cells: T-47D
T1 sequence (Q08345 19-913): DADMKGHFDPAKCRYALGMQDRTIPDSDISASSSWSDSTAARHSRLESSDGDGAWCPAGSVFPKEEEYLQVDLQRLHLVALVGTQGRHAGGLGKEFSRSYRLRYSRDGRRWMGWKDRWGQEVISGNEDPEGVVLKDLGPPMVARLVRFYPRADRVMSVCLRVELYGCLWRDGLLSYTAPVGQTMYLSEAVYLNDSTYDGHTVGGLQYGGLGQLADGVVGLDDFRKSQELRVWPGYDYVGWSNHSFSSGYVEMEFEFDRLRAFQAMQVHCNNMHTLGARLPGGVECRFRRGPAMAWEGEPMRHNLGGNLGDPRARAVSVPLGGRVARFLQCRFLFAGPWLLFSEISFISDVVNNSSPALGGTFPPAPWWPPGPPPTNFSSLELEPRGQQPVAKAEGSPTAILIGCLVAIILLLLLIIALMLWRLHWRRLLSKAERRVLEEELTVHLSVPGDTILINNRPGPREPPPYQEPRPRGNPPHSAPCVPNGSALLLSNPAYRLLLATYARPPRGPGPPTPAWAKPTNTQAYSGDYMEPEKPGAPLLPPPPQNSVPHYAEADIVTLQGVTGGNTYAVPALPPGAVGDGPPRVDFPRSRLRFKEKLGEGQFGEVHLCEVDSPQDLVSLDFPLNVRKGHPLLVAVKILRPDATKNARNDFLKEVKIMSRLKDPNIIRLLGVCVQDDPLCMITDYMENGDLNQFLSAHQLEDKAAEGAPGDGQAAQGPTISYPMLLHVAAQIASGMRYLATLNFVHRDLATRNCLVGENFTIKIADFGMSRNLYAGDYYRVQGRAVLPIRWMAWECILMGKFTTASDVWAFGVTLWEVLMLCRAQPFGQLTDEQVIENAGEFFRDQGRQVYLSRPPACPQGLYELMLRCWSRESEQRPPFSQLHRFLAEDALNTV
Summary of the method: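 T-47D cells were pre-treated with compound 24 h in RPMI/0.1% BSA (0.1% DMSO, 6-point 10-fold series), then stimulated with rat tail collagen I (10 μg/ml) for 24 h at 37 °C. Lysate p-DDR1 (panTyr) was read by ELISA; IC50 derived from % inhibition versus collagen and no-collagen controls.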

KDR = KDR (Homo sapiens, UniProt P35968); experiment: Evaluation of kinase selectivity: % inhibition rate of KDR at 1 μmol/L; format: biochemical; conditions: compound at 1 μmol/L
Chain of KDR (P35968 20-1356, species assumed): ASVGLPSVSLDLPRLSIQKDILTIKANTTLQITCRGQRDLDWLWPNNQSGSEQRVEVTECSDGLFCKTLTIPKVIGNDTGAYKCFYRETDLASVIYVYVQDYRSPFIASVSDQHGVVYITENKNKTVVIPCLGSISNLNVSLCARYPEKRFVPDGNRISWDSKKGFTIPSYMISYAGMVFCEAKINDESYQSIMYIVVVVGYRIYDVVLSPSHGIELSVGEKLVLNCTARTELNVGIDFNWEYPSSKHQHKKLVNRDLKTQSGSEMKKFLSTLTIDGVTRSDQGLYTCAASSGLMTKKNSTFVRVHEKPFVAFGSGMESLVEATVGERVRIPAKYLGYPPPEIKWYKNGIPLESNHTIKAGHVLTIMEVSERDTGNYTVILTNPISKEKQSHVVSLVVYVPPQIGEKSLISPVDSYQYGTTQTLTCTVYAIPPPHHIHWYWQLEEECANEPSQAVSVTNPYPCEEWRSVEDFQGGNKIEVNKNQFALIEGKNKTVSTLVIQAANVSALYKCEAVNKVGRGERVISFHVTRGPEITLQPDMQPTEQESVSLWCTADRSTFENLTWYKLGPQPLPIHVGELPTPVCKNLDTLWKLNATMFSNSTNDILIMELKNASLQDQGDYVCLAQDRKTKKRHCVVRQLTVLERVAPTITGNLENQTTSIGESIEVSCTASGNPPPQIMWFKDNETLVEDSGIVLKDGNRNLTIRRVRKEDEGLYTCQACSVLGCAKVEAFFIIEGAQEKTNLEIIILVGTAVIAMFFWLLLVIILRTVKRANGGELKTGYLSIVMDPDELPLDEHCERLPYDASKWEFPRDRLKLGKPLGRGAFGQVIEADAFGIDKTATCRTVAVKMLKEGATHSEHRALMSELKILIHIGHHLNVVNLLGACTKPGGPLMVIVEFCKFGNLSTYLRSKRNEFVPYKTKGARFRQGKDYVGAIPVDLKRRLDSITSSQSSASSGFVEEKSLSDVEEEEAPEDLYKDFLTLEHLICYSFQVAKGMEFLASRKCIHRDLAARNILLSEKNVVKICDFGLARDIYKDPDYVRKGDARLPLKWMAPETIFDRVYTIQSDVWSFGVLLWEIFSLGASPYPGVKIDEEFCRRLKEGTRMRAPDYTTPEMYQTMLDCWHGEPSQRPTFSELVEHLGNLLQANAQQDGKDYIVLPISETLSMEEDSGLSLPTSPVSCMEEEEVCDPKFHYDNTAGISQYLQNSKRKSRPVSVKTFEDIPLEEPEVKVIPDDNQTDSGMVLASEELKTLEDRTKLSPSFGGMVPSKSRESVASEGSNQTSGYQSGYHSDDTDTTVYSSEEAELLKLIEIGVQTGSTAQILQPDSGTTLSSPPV
Procedure: as §1, §2, §3, §4, §5, §6, §7, §8

Flt-3 = target: T2, Flt-3 (Homo sapiens, UniProt P36888); experiment: Evaluation of kinase selectivity: % inhibition rate of Flt-3 at 1 μmol/L; format: biochemical; conditions: compound at 1 μmol/L
T2 sequence (P36888 27-993): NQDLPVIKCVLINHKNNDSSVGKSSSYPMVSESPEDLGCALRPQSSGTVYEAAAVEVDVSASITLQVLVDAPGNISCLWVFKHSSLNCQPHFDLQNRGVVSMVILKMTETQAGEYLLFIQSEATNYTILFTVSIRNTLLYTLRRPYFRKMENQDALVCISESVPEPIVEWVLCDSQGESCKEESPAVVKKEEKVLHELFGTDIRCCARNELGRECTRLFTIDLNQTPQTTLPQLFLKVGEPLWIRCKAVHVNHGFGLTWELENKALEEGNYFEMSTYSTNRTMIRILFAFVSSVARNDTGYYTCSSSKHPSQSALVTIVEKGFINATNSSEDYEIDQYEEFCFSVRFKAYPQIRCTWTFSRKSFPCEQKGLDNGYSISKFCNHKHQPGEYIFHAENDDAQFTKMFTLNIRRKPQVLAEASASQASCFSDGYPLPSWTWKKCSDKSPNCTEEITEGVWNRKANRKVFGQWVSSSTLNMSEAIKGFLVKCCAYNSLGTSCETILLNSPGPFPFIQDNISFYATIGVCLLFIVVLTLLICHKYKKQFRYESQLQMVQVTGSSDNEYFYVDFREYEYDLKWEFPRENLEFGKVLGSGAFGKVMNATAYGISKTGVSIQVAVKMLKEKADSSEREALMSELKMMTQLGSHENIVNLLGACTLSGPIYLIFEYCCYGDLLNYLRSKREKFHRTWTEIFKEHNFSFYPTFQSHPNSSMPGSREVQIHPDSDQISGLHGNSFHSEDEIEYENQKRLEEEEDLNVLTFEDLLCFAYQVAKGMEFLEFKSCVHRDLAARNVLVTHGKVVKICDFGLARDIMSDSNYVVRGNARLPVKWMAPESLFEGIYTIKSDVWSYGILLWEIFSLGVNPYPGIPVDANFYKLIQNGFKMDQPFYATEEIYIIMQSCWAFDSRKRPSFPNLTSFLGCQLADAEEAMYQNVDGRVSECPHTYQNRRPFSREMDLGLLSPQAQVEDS
Procedure: as §1, §2, §3, §4, §5, §6, §7, §8

Chain of ROCK (O75116 whole entry): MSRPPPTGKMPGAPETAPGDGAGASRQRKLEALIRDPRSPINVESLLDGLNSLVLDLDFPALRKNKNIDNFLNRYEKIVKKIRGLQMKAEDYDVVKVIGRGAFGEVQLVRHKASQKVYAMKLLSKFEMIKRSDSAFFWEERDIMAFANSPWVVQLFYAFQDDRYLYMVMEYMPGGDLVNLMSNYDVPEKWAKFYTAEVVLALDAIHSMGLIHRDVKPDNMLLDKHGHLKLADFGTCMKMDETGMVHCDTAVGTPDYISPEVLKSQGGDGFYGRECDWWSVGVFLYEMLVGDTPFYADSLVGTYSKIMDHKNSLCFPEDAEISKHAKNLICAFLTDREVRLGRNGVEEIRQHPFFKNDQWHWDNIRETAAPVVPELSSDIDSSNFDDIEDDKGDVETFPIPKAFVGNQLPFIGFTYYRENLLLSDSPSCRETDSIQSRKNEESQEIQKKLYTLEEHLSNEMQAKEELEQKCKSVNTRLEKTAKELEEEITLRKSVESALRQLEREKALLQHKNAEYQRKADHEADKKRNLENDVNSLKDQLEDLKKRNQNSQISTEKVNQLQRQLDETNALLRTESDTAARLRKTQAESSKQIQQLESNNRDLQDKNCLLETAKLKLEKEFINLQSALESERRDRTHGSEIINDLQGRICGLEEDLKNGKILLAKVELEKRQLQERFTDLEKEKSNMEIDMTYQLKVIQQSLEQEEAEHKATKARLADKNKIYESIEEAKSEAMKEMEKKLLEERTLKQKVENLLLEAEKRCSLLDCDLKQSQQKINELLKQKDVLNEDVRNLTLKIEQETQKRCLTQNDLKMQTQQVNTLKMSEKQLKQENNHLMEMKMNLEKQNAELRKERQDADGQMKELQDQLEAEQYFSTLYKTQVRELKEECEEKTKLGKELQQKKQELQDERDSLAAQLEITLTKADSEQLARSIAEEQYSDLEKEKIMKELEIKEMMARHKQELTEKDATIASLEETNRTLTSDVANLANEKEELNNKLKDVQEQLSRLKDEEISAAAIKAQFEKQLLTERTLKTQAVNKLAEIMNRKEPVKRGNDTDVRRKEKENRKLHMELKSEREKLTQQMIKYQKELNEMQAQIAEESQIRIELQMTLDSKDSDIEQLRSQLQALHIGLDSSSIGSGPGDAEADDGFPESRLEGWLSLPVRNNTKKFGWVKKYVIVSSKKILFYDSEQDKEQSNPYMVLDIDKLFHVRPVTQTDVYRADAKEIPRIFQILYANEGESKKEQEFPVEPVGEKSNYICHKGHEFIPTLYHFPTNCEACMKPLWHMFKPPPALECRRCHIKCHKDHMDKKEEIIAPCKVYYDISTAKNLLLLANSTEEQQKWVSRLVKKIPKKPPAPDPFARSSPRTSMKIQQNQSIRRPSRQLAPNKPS

Cc1cc(Oc2ccnc(N)n2)ccc1N1C(=O)CN(c2ccc(F)c(OC(F)(F)F)c2)C1=O [Example 3(110), 3-{4-[(2-amino-4-pyrimidinyl)oxy]-2-methylphenyl}-1-[4-fluoro-3-(trifluoromethoxy)phenyl]-2,4-imidazolidinedione]
inhibition at 1 µM (ROCK): -2%
IC50 [1]: 1 nM
inhibition at 1 µM (KDR): 4%
inhibition at 1 µM (Flt-3): 6%
